Data from PMC11358092, “Caspofungin enhances the potency of rifampin against Gram-negative bacteria” (Frontiers in Microbiology, 2024).
Counter-ions that a name gives are not always drawn.

Test system: E. coli MG1655
Assay: High-throughput screening of FDA-approved drug library for antibiotic adjuvants (growth inhibition, OD600)
Assay type: cell-based, Escherichia coli
Details: library drug alone, LB medium, 96-well, 8 h static culture at 37°C, relative to PMBN (positive) and DMSO (negative) controls, %, table head prints no unit
Description: To screen for antibiotic adjuvants against GNB, […] library drugs or polymyxin B nonapeptide (PMBN, positive control) or dimethyl sulfoxide (DMSO, negative control). After 8 h of static culture at 37°C, the optical density at 600 nm (OD600) was measured using a microplate reader. Percentage inhibition was calculated as (ODN – ODX)/(ODN – ODP) × 100%, where ODX is the OD600 value for a test treated with drug X, and ODP and ODN are the OD600 values for the positive and negative control, respectively.

| Structure (SMILES) | Growth inhibition, Compound [%] |
| --- | --- |
| O.c1cnc2c(c1)ccc1cccnc12 [1, 10-Phenanthroline monohydrate] | 62 |
| Cc1cn([C@H]2C[C@H](F)[C@@H](CO)O2)c(=O)[nH]c1=O [3'-Deoxy-3'-fluorothymidine] | 70 |
| Nc1ncn([C@@H]2O[C@H](CO)[C@@H](O)[C@H]2O)c(=O)n1 [5-Azacytidine] | 43 |
| NCC[C@H](O)C(=O)N[C@@H]1C[C@H](N)[C@@H](O[C@H]2O[C@H](CN)[C@@H](O)[C@H](O)[C@H]2O)[C@H](O)[C@H]1O[C@H]1O[C@H](CO)[C@@H](O)[C@H](N)[C@H]1O.O=S(=O)(O)O.O=S(=O)(O)O [Amikacin Sulfate Salt] | 107 |
| NCC[C@H](O)C(=O)N[C@@H]1C[C@H](N)[C@@H](O[C@H]2O[C@H](CN)[C@@H](O)[C@H](O)[C@H]2O)[C@H](O)[C@H]1O[C@H]1O[C@H](CO)[C@@H](O)[C@H](N)[C@H]1O.O=S(=O)(O)O.O=S(=O)(O)O [Amikacin disulfate] | 108 |
| NCC[C@H](O)C(=O)N[C@@H]1C[C@H](N)[C@@H](O[C@H]2O[C@H](CN)[C@@H](O)[C@H](O)[C@H]2O)[C@H](O)[C@H]1O[C@H]1O[C@H](CO)[C@@H](O)[C@H](N)[C@H]1O [Amikacin] | 105 |
| CC1(C)S[C@@H]2[C@H](NC(=O)[C@H](N)c3ccc(O)cc3)C(=O)N2[C@H]1C(=O)[O-].[Na+] [Amoxicillin Sodium] | 98 |
| CC1(C)S[C@@H]2[C@H](NC(=O)[C@H](N)c3ccccc3)C(=O)N2[C@H]1C(=O)O [Ampicillin sodium] | 91 |
| CN(C)[C@@H]1C(O)=C(C(N)=O)C(=O)[C@@]2(O)C(O)=C3C(=O)c4c(O)cccc4[C@@](C)(O)C3[C@H](O)C12.Cl (stereo partly shown) [Aquacycline] | 110 |
| C[C@@H]1CC[C@H]2[C@@H](C)C(=O)O[C@@H]3O[C@@]4(C)CC[C@@H]1[C@]32OO4 [Artemisinin] | 40 |
| NC(=O)[C@@H]1CC[C@@H]2CN1C(=O)N2OS(=O)(=O)O [Avibactam sodium] | 46 |
| CC[C@H]1OC(=O)[C@H](C)[C@@H](O[C@H]2C[C@@](C)(OC)[C@@H](O)[C@H](C)O2)[C@H](C)[C@@H](O[C@@H]2O[C@H](C)C[C@H](N(C)C)[C@H]2O)[C@](C)(O)C[C@@H](C)CN[C@H](C)[C@@H](O)[C@]1(C)O [Azathramycin] | 114 |
| CC[C@H]1OC(=O)[C@H](C)[C@@H](O[C@H]2C[C@@](C)(OC)[C@@H](O)[C@H](C)O2)[C@H](C)[C@@H](O[C@@H]2O[C@H](C)C[C@H](N(C)C)[C@H]2O)[C@](C)(O)C[C@@H](C)CN(C)[C@H](C)[C@@H](O)[C@]1(C)O [Azithromycin dihydrate] | 111 |
| CC[C@H]1OC(=O)[C@H](C)[C@@H](O[C@H]2C[C@@](C)(OC)[C@@H](O)[C@H](C)O2)[C@H](C)[C@@H](O[C@@H]2O[C@H](C)C[C@H](N(C)C)[C@H]2O)[C@](C)(O)C[C@@H](C)CN(C)[C@H](C)[C@@H](O)[C@]1(C)O [Azithromycin] | 109 |
| CC1(C)S[C@@H]2[C@H](NC(=O)[C@H](NC(=O)N3CCNC3=O)c3ccccc3)C(=O)N2[C@H]1C(=O)O [Azlocillin sodium] | 94 |
| CNC1CCCN(c2c(F)cc3c(=O)c(C(=O)O)cn(C4CC4)c3c2OC)C1 (stereo not shown) [Balofloxacin] | 108 |
| NC[C@H]1O[C@H](O[C@H]2[C@H](O)[C@@H](O[C@H]3O[C@H](CO)[C@@H](O)[C@H](N)[C@H]3O)[C@H](N)C[C@@H]2N)[C@H](N)[C@@H](O)[C@@H]1O [Bekanamycin] | 106 |
| S=C=NCc1ccccc1 [Benzyl isothiocyanate] | 71 |
| CC1(C)S[C@@H]2[C@H](NC(=O)Cc3ccccc3)C(=O)N2[C@H]1C(=O)O [Benzylpenicillin potassium] | 55 |
| Cl.N[C@@H]1CCCCN(c2c(F)cc3c(=O)c(C(=O)O)cn(C4CC4)c3c2Cl)C1 [Besifloxacin HCl] | 107 |
| C[C@@H](O)[C@H]1C(=O)N2C(C(=O)[O-])=C(SC3Cn4cnc[n+]4C3)[C@H](C)[C@H]12 (stereo partly shown) [Biapenem] | 113 |
| Oc1c(Cl)cc(Cl)cc1Sc1cc(Cl)cc(Cl)c1O [Bithionol] | 86 |
| Cc1c(N)nc([C@H](CC(N)=O)NC[C@H](N)C(N)=O)nc1C(=O)N[C@H](C(=O)N[C@H](C)[C@@H](O)[C@H](C)C(=O)N[C@H](C(=O)NCCc1nc(-c2nc(C(=O)NCCC[S+](C)C)cs2)cs1)[C@@H](C)O)[C@@H](O[C@@H]1O[C@@H](CO)[C@@H](O)[C@H](O)[C@@H]1O[C@H]1O[C@H](CO)[C@@H](O)[C@H](OC(N)=O)[C@@H]1O)c1cnc[nH]1.O=S(=O)([O-])O [Bleomycin Sulfate] | 110 |
| O=[N+]([O-])C(Br)(CO)CO [Bronopol] | 100 |
| Oc1c(Br)cc(Br)c2cccnc12 [Broxyquinoline] | 103 |
| Oc1c(Cl)cc(Cl)c2cccnc12 [Capitrol] | 118 |

| Structure (SMILES) | Growth inhibition, Compound [%] |
| --- | --- |
| COC(=O)N/N=C/c1c[n+]([O-])c2ccccc2[n+]1[O-] [Carbadox] | 110 |
| CC1(C)S[C@@H]2[C@H](NC(=O)C(C(=O)O)c3ccccc3)C(=O)N2[C@H]1C(=O)O (stereo partly shown) [Carbenicillin disodium] | 89 |
| N[C@@H](C(=O)N[C@@H]1C(=O)N2C(C(=O)O)=C(Cl)CS[C@H]12)c1ccccc1 [Cefaclor monohydrate] | 80 |
| Cn1nnnc1SCC1=C(C(=O)O)N2C(=O)[C@@H](NC(=O)[C@H](OC=O)c3ccccc3)[C@H]2SC1 [Cefamandole nafate] | 88 |
| Cc1nnc(SCC2=C(C(=O)O)N3C(=O)[C@@H](NC(=O)Cn4cc(Cl)c(=O)c(Cl)c4)[C@H]3SC2)s1 [Cefazedone] | 111 |
| Cc1nnc(SCC2=C(C(=O)O)N3C(=O)[C@@H](NC(=O)Cn4cnnn4)[C@H]3SC2)s1 [Cefazolin sodium salt] | 90 |
| Cc1nnc(SCC2=C(C(=O)O)N3C(=O)[C@@H](NC(=O)Cn4cnnn4)[C@H]3SC2)s1 [Cefazolin] | 102 |
| C=CC1=C(C(=O)O)N2C(=O)[C@@H](NC(=O)/C(=N\O)c3csc(N)n3)[C@H]2SC1 [Cefdinir] | 100 |
| CO/N=C(\C(=O)N[C@@H]1C(=O)N2C(C(=O)OCOC(=O)C(C)(C)C)=C(/C=C\c3scnc3C)CS[C@H]12)c1csc(N)n1 [Cefditoren pivoxil] | 73 |
| CO/N=C(\C(=O)N[C@@H]1C(=O)N2C(C(=O)O)=C(C[N+]3(C)CCCC3)CS[C@H]12)c1csc(N)n1 [Cefepime Dihydrochloride Monohydrate] | 83 |
| C=CC1=C(C(=O)O)N2C(=O)[C@@H](NC(=O)/C(=N\OCC(=O)O)c3csc(N)n3)[C@H]2SC1 [Cefixime] | 109 |
| CO/N=C(\C(=O)N[C@@H]1C(=O)N2C(C(=O)O)=C(CSc3nnnn3C)CS[C@H]12)c1csc(N)n1.CO/N=C(\C(=O)N[C@@H]1C(=O)N2C(C(=O)O)=C(CSc3nnnn3C)CS[C@H]12)c1csc(N)n1.Cl [Cefmenoxime hydrochloride] | 96 |
| CO[C@@]1(NC(=O)CSCC#N)C(=O)N2C(C(=O)O)=C(CSc3nnnn3C)CS[C@@H]21 [Cefmetazole sodium] | 96 |
| CO/N=C(\C(=O)N[C@@H]1C(=O)N2C(C(=O)O)=C(CSc3nc(C)c(CC(=O)O)s3)CS[C@H]12)c1csc(N)n1 [Cefodizime Sodium] | 88 |
| O=C([O-])C1=C(CSc2nnnn2CS(=O)(=O)[O-])CS[C@@H]2[C@H](NC(=O)[C@H](O)c3ccccc3)C(=O)N12.[Na+].[Na+] [Cefonicid sodium] | 59 |
| CCN1CCN(C(=O)N[C@@H](C(=O)N[C@@H]2C(=O)N3C(C(=O)O)=C(CSc4nnnn4C)CS[C@H]23)c2ccc(O)cc2)C(=O)C1=O [Cefoperazone] | 100 |
| NCc1ccccc1CC(=O)N[C@@H]1C(=O)N2C(C(=O)O)=C(CSc3nnnn3CC(=O)O)CS[C@H]12 [Ceforanide] | 94 |
| CO/N=C(\C(=O)N[C@@H]1C(=O)N2C(C(=O)[O-])=C(C[n+]3ccc(N)n3CCO)CS[C@H]12)c1csc(N)n1.O=S(=O)(O)O [Cefoselis Sulfate] | 107 |
| CO/N=C(\C(=O)N[C@@H]1C(=O)N2C(C(=O)O)=C(COC(C)=O)CS[C@H]12)c1csc(N)n1 [Cefotaxime sodium] | 99 |
| CO/N=C(\C(=O)N[C@@H]1C(=O)N2C(C(=O)O)=C(COC(C)=O)CS[C@H]12)c1csc(N)n1 [Cefotaxime] | 113 |
| CO[C@@]1(NC(=O)C2SC(=C(C(N)=O)C(=O)O)S2)C(=O)N2C(C(=O)O)=C(CSc3nnnn3C)CS[C@@H]21 (stereo partly shown) [Cefotetan] | 97 |
| CC(OC(=O)OC1CCCCC1)OC(=O)C1=C(CSc2nnnn2CCN(C)C)CS[C@@H]2[C@H](NC(=O)Cc3csc(N)n3)C(=O)N12.Cl.Cl (stereo partly shown) [Cefotiam Hexetil Hydrochloride] | 87 |
| CN(C)CCn1nnnc1SCC1=C(C(=O)O)N2C(=O)[C@@H](NC(=O)Cc3csc(N)n3)[C@H]2SC1 [Cefotiam hydrochloride] | 105 |
| CO[C@@]1(NC(=O)Cc2cccs2)C(=O)N2C(C(=O)O)=C(COC(N)=O)CS[C@@H]21 [Cefoxitin sodium] | 78 |
| Cc1cc(O)c(C(=O)N[C@@H](C(=O)N[C@@H]2C(=O)N3C(C(=O)O)=C(CSc4nnnn4C)CS[C@H]23)c2ccc(O)cc2)cn1 [Cefpiramide acid] | 97 |
| CO/N=C(\C(=O)N[C@@H]1C(=O)N2C(C(=O)O)=C(C[n+]3cccc4c3CCC4)CS[C@H]12)c1csc(N)n1.O=S(=O)([O-])O [Cefpirome sulfate] | 93 |
